Key:
Format in all cases: functional, cell-based, Oocyte
[1] = target: T1, Solute carrier organic anion transporter family member 1A2 (OATP1A2) (Homo sapiens, UniProt P46721); assay: TP_TRANSPORTER: inhibition of DHEAS uptake (DHEAS: 5 uM, TCDC: 100 uM) in Xenopus laevis oocytes; details: Xenopus laevis oocytes expressing OATP1A2 (SLCO1A2), probe DHEAS (5 uM)
T1 sequence (P46721 whole entry): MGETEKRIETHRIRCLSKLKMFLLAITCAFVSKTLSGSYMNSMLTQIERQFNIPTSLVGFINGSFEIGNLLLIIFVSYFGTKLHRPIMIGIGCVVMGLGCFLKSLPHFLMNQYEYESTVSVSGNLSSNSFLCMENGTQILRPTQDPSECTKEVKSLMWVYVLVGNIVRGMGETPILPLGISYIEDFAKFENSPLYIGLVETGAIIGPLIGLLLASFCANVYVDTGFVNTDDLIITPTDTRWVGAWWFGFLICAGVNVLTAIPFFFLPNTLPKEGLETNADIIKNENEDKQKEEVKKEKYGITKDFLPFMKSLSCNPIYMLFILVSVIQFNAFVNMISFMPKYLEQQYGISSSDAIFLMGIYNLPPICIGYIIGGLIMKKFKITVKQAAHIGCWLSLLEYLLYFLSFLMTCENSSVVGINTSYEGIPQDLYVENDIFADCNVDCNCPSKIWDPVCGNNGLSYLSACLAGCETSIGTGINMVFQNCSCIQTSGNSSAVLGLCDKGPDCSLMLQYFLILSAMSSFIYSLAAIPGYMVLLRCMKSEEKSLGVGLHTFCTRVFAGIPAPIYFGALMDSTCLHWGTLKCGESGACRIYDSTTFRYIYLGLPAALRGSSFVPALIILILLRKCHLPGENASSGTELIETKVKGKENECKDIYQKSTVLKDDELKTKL

[2] = target: T1, Solute carrier organic anion transporter family member 1A2 (OATP1A2); assay: TP_TRANSPORTER: inhibition of DHEAS uptake (DHEAS: 5 uM, Dexamethasone: 100 uM) in Xenopus laevis oocytes; details: Xenopus laevis oocytes expressing OATP1A2 (SLCO1A2), probe DHEAS (5 uM)
[3] = target: T1, Solute carrier organic anion transporter family member 1A2 (OATP1A2); assay: TP_TRANSPORTER: inhibition of DHEAS uptake (DHEAS: 5 uM, TUDC: 100 uM) in Xenopus laevis oocytes; details: Xenopus laevis oocytes expressing OATP1A2 (SLCO1A2), probe DHEAS (5 uM)
[4] = target: T1, Solute carrier organic anion transporter family member 1A2 (OATP1A2); assay: TP_TRANSPORTER: inhibition of DHEAS uptake (DHEAS: 5 uM, Estradiol-3-sulfate: 100 uM) in Xenopus laevis oocytes; details: Xenopus laevis oocytes expressing OATP1A2 (SLCO1A2), probe DHEAS (5 uM)
[5] = target: T1, Solute carrier organic anion transporter family member 1A2 (OATP1A2); assay: TP_TRANSPORTER: inhibition of DHEAS uptake (DHEAS: 5 uM, E1S: 100 uM) in Xenopus laevis oocytes; details: Xenopus laevis oocytes expressing OATP1A2 (SLCO1A2), probe DHEAS (5 uM)
[6] = target: T1, Solute carrier organic anion transporter family member 1A2 (OATP1A2); assay: TP_TRANSPORTER: uptake in Xenopus laevis oocytes; details: Xenopus laevis oocytes expressing OATP1A2 (SLCO1A2)

Compound C[C@H](CCC(=O)NCCS(=O)(=O)O)[C@H]1CC[C@H]2[C@@H]3[C@H](O)C[C@@H]4C[C@H](O)CC[C@]4(C)[C@H]3CC[C@]12C [TAUROCHENODEOXYCHOLATE] has an inhibition at 100 µM [1] of 75.2%.
Work on C[C@@H]1C[C@H]2[C@@H]3CCC4=CC(=O)C=C[C@]4(C)[C@@]3(F)[C@@H](O)C[C@]2(C)[C@@]1(O)C(=O)CO [DEXAMETHASONE] yielded an inhibition at 100 µM [2] of 97.3%.
Work on C[C@H](CCC(=O)NCCS(=O)(=O)O)[C@H]1CC[C@H]2[C@@H]3[C@@H](O)C[C@@H]4C[C@H](O)CC[C@]4(C)[C@H]3CC[C@]12C [TAURURSODIOL] yielded an inhibition at 100 µM [3] of 85.7%.
C[C@]12CC[C@@H]3c4ccc(OS(=O)(=O)O)cc4CC[C@H]3[C@@H]1CC[C@@H]2O was tested, and the inhibition at 100 µM [4] was 92.9%.
In the case of C[C@]12CC[C@@H]3c4ccc(OS(=O)(=O)O)cc4CC[C@H]3[C@@H]1CCC2=O [ESTRONE SULFURIC ACID], the inhibition at 100 µM [5] was 82.3%.
For C[C@]12CC[C@H](OS(=O)(=O)O)CC1=CC[C@@H]1[C@@H]2CC[C@]2(C)C(=O)CC[C@@H]12 [PRASTERONE SULFURIC ACID], the Km [6] was 6.6 µM.
